Experimental data from patent US11702414B2, “Thiadiazole IRAK4 inhibitors” (Gilead Sciences, Inc., priority 2018, dated 2023).
Like-named read-outs stand apart in the source and are kept apart here.

What was measured:
IRAK4 enzyme = IRAK4 enzyme (Homo sapiens (Human), UniProt Q9NWZ3); test: IRAK4 Biochemical Assay (TR-FRET, STK1 KinEASE); conditions: second part of Table 2 (compounds 33-343); unit inferred; read-out: IC50 IRAK4-HTBS
Protocol: IRAK4 enzyme (Carna Biosciences, Chuo-ku, Kobe, Japan) activity was measured by detecting phosphorylated peptide substrate formation using an antibody against the phosphorylated peptide substrate. This is a time-resolved fluorescence resonance energy transfer (TR-FRET) immunoassay, based on the STK1 KinEASE Assay (Cisbio, Bedford, Mass.). The assay was designed as a simple two-step, endpoint assay (a 5 μl enzyme reaction followed by 5 μl stop and detect Solution) performed in ProxiPlate-384 Plus plates (Perkin Elmer, Waltham, Mass.). […] Compounds diluted in DMSO were spotted into 384 well plates using a Labcyte® Echo 550 Liquid Handling System prior to addition of IRAK4 enzyme and peptide substrate. Reaction solutions were delivered using a Multi-Flo (Bio-Tek Instruments). The enzyme and peptide solution was incubated with compound for 15 minutes at room temp before the reaction was initiated by the addition of ATP. The standard 5 μl reaction mixture contained 500 μM ATP, 2 μM peptide (STK1 Peptide), 0.75 nM of IRAK4 in reaction buffer (50 mM HEPES, pH 7.0, 0.02% NaN3, 0.01% BSA, 0.1 mM Orthovanadate, 5 mM MgCl2, 0.025% NP-40, 1 mM DTT). After 120 min of incubation at room temperature, 5 μl of Stop and Detect Solution (1:100 Cryptate labeled anti-phosphorylated peptide antibody solution and 125 nM Tracer in a 50 mM HEPES pH 7.0 detection buffer containing sufficient EDTA) was added. The plate was then further incubated for 60 minutes at room temperature and read on Envision 2103 Multilabeled reader (PerkinElmer) with excitation/emission/FRET emission at 340 nm/615 nm/665 nm, respectively. Fluorescence intensities at 615 nm and 665 nm emission wavelengths were expressed as a ratio (665 nm/615 nm). Percentage of inhibition was calculated as below: % Inhibition=100×(RatioSample−Ratio0% Inhibition)/(Ratio100% Inhibition−Ratio0% Inhibition)
The 0% inhibition value comes from control wells lacking inhibitor.

TNFα = test: IRAK4 Monocyte TNFα Cell Based Assay; parameters: species or system human
Protocol: IRAK4 Monocyte TNFα Cell Based Assay Procedure:
The cell suspension was then plated at a density of 5,000 cells/well onto black 384 well Greiner clear bottom plates. Plates were pre-spotted with test compounds and serially diluted in DMSO where 40 nL/well were delivered using the Echo 550 acoustic liquid dispenser (Labcyte®) for a final DMSO concentration of 0.1%. Plated cells were treated with compound for 1 hour at 37° C. Cells were then stimulated with 50 pg/ml of LPS (Sigma) excluding outside columns of plate used for unstimulated cell control wells. Cells were incubated for an additional 4 hours at 37° C. Cells were then spun out of the media and 5μl of sample were taken and analyzed for total TNFα content using the TR-FRET Human TNFα detection system (CisBio). This system utilizes two labeled antibodies (cryptate and XL665) that bind to two different epitopes of the TNFα molecule and produce FRET signal proportional to the concentration of TNFα in the sample. Detection antibodies are mixed 50:50 and 5 μL were dispensed into each well. Plates were covered with clear seals and incubated at room temp overnight. […] Percent of control was calculated as follows: % Control=100×(RatioSample−Ratio0% Stimulation)/(Ratio100% Stimulation−Ratio0% Stimulation) where unstimulated cells (0% stimulation) were the negative control and stimulated cells (100% stimulation) were used as the positive control.

[1] = Homo sapiens, Monocyte, human monocytes, LPS-stimulated, compounds 1-32, read-out: EC50 TNF
[2] = human monocytes, second part of Table 2 (compounds 33-343), unit inferred, read-out: EC50MONO TNF HTRF

Sequence of IRAK4 enzyme (Q9NWZ3 whole entry): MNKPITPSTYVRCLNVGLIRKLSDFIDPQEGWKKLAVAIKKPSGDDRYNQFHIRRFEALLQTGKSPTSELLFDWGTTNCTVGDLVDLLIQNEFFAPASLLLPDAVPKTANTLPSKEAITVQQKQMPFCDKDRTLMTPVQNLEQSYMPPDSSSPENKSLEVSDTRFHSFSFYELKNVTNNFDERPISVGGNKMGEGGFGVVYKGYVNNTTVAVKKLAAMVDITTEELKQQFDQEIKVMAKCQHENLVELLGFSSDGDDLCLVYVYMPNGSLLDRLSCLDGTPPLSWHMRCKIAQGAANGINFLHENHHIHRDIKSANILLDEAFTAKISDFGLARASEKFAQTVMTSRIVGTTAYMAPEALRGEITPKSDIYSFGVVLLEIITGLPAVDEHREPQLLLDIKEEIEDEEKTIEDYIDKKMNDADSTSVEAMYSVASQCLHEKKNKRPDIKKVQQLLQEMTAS

SMILES | EC50 (TNFα; [2]) [nM] | other results
CC(=O)NC1CCC(F)(c2nnc(-c3cnc(-c4ccc5cc(C#N)cnn45)cc3NC3COC3)s2)CC1 (single isomer, unassigned) [Example 195, N-(4-(5-(6-(3-cyanopyrrolo[1,2-b]pyridazin-7-yl)-4-(oxetan-3-ylamino)pyridin-3-yl)-1,3,4-thiadiazol-2-yl)-4-fluorocyclohexyl)acetamide] |  | IC50 (IRAK4 enzyme): 1.09 nM
CC(=O)NC1CCC(F)(c2nnc(-c3cnc(-c4ccc5cc(C#N)cnn45)cc3NC3COC3)s2)CC1 (single isomer, unassigned) [Example 196, N-(4-(5-(6-(3-cyanopyrrolo[1,2-b]pyridazin-7-yl)-4-(oxetan-3-ylamino)pyridin-3-yl)-1,3,4-thiadiazol-2-yl)-4-fluorocyclohexyl)acetamide] |  | IC50 (IRAK4 enzyme): 1.62 nM
CC1(O)CCC(c2nnc(-c3cnc(-c4ccc5cc(C#N)cnn45)cc3NC3COC3)s2)CC1 (single isomer, unassigned) [Example 206, 7-(5-(5-(4-hydroxy-4-methylcyclohexyl)-1,3,4-thiadiazol-2-yl)-4-(oxetan-3-ylamino)pyridin-2-yl)pyrrolo[1,2-b]pyridazine-3-carbonitrile] |  | IC50 (IRAK4 enzyme): 0.56 nM
CC(=O)N[C@H]1CC[C@H](c2nnc(-c3cnc(-c4ccc5cc(C#N)cnn45)cc3N[C@H]3CC[C@H](c4nnc(C(F)F)o4)CC3)s2)CC1 [Example 2] |  | EC50 (TNFα; [1]): 8 nM
CC(=O)N[C@H]1CC[C@H](c2nnc(-c3cnc(-c4ccc5cc(C#N)cnn45)cc3NCC#N)s2)CC1 [Example 20, N-((1r,4r)-4-(5-(4-((cyanomethyl)amino)-6-(3-cyanopyrrolo[1,2-b]pyridazin-7-yl)pyridin-3-yl)-1,3,4-thiadiazol-2-yl)cyclohexyl)acetamide] |  | EC50 (TNFα; [1]): 6 nM
CC(=O)N[C@H]1CC[C@H](c2nnc(-c3cnc(-c4ccc5cc(C#N)cnn45)cc3NC3COC3)s2)CC1 [Example 21, N-((1r,4r)-4-(5-(6-(3-cyanopyrrolo[1,2-b]pyridazin-7-yl)-4-(oxetan-3-ylamino)pyridin-3-yl)-1,3,4-thiadiazol-2-yl)cyclohexyl)acetamide] |  | EC50 (TNFα; [1]): 10 nM
COC(=O)NC[C@H]1C[C@H](Nc2cc(-c3ccc4cc(C#N)cnn34)ncc2-c2nnc([C@H]3CC[C@H](NC(C)=O)CC3)s2)C1 [Example 23, methyl (((1R,3r)-3-((5-(5-((1r,4R)-4-acetamidocyclohexyl)-1,3,4-thiadiazol-2-yl)-2-(3-cyanopyrrolo[1,2-b]pyridazin-7-yl)pyridin-4-yl)amino)cyclobutyl)methyl)carbamate] |  | EC50 (TNFα; [1]): 6 nM
CC(=O)N[C@@H]1CCN(c2nnc(-c3cnc(-c4ccc5cc(C#N)cnn45)cc3NC(C)C)s2)C[C@@H]1O [Example 63, N-((3S,4R)-1-(5-(6-(3-cyanopyrrolo[1,2-b]pyridazin-7-yl)-4-(isopropylamino)pyridin-3-yl)-1,3,4-thiadiazol-2-yl)-3-hydroxypiperidin-4-yl)acetamide] |  | EC50 (TNFα; Homo sapiens, Monocyte, human monocytes, second part of Table 2 (compounds 33-343), unit inferred, read-out: EC50MONO TNF HTRF): 13.8 nM
CC(C)Nc1cc(-c2ccc3cc(C#N)cnn23)ncc1-c1nnc(C23CCC(O)(CC2)CC3)s1 [Example 89, 7-(5-(5-(4-hydroxybicyclo[2.2.2]octan-l-yl)-1,3,4-thiadiazol-2-yl)-4-(isopropylamino)pyridin-2-yl)pyrrolo[1,2-b]pyridazine-3-carbonitrile] | 11.3 | 
CC(C)Nc1cc(-c2ccc3cc(C#N)cnn23)ncc1-c1nnc(N2CC3CC(C2)N3C(=O)C2CCN(C)CC2)s1 [Example 117, 7-(4-(isopropylamino)-5-(5-(6-(1-methylpiperidine-4-carbonyl)-3,6-diazabicyclo[3.1.1]heptan-3-yl)-1,3,4-thiadiazol-2-yl)pyridin-2-yl)pyrrolo[1,2-b]pyridazine-3-carbonitrile] |  | EC50 (TNFα; Homo sapiens, Monocyte, read-out: EC50MONO TNF HTRF): 11.1 nM
C[C@H](C#N)Nc1cc(-c2ccc3cc(C#N)cnn23)ncc1-c1nnc(N2C[C@H]3CC[C@@H](C2)[C@@H]3NC(=O)C2CC2)s1 [Example 148, N-((1R,5S,8S)-3-(5-(4-(((R)-1-cyanoethyl)amino)-6-(3-cyanopyrrolo[1,2-b]pyridazin-7-yl)pyridin-3-yl)-1,3,4-thiadiazol-2-yl)-3-azabicyclo[3.2.1]octan-8-yl)cyclopropanecarboxamide] | 1.4 | 
CC(=O)N[C@@H]1CCN(c2nnc(-c3cnc(-c4ccc5cc(C#N)cnn45)cc3NC3COC3)s2)CC1(F)F [Example 183, (R)-N-(1-(5-(6-(3-cyanopyrrolo[l,2-b]pyridazin-7-yl)-4-(oxetan-3-ylamino)pyridin-3-yl)-1,3,4-thiadiazol-2-yl)-3,3-difluoropiperidin-4-yl)acetamide] | 8.8 | 
CC1(O)CCN(c2nnc(-c3cnc(-c4ccc5cc(C#N)cnn45)cc3NC3CCOCC3)s2)CC1 [Example 188, 7-(5-(5-(4-hydroxy-4-methylpiperidin-l-yl)-1,3,4-thiadiazol-2-yl)-4-((tetrahydro-2H-pyran-4-yl)amino)pyridin-2-yl)pyrrolo[1,2-b]pyridazine-3-carbonitrile] | 7.6 | 

Second part, led by results:

EC50 (TNFα; [2]) [nM] | SMILES | other results
26.5 | CC(C)Nc1cc(-c2ccc3cc(C#N)cnn23)ncc1-c1nnc(N2CC[C@@H](O)C(F)(F)C2)s1 [Example 162, (R)-7-(5-(5-(3,3-difluoro-4-hydroxypiperidin-l-yl)-1,3,4-thiadiazol-2-yl)-4-(isopropylamino)pyridin-2-yl)pyrrolo[1,2-b]pyridazine-3-carbonitrile] | 
4.9 | C[C@H](C#N)Nc1cc(-c2ccc3cc(C#N)cnn23)ncc1-c1nnc(N2CC3CC(C2)O3)s1 [Example 178, 7-(5-(5-(6-oxa-3-azabicyclo[3.1.1]heptan-3-yl)-l,3,4-thiadiazol-2-yl)-4-(((R)-1-cyanoethyl)amino)pyridin-2-yl)pyrrolo[1,2-b]pyridazine-3-carbonitrile] | 
10.8 | CC1(O)CCN(c2nnc(-c3cnc(-c4ccc5cc(C#N)cnn45)cc3NC3COC3)s2)CC1 [Example 187, 7-(5-(5-(4-hydroxy-4-methylpiperidin-1-yl)-1,3,4-thiadiazol-2-yl)-4-(oxetan-3-ylamino)pyridin-2-yl)pyirolo[1,2-b]pyridazine-3-carbonitrile] | 
22.9 | CC(C)Nc1cc(-c2ccc3cc(C#N)cnn23)ncc1-c1nnc(N2CC[C@@](C)(O)[C@H](F)C2)s1 [Example 191, 7-(5-(5-((3R,$R)-3-fluoro-4-hydroxy-4-methylpiperidin-1-yl)-1,3,4-thiadiazol-2-yl)-4-(isopropylamino)pyridin-2-yl)pyrrolo[1,2-b]pyridazine-3-carbonitrile] | 
3.5 | C[C@]1(O)CCN(c2nnc(-c3cnc(-c4ccc5cc(C#N)cnn45)cc3NC3CCOCC3)s2)C[C@@H]1F [Example 204, 7-(5-(5-((3S,4S)-3-fluoro-4-hydroxy-4-methylpiperidin-l-yl)-1,3,4-thiadiazol-2-yl)-4-((tetrahydro-2H-pyran-4-yl)amino)pyridin-2-yl)pyrrolo[1,2-b]pyridazine-3-carbonitrile] | 
305 | CC(C)Nc1cc(-c2ccc3cc(C#N)cnn23)ncc1-c1nnc(CCN)s1 [Example 212, 7-(5-(5-(2-aminoethyl)-l,3,4-thiadiazol-2-yl)-4-(isopropylamino)pyridin-2-yl)pyrrolo[1,2-b]pyridazine-3-carbonitrile] | 
2320 | CC(C)Nc1cc(-c2ccc3cc(C#N)cnn23)ncc1-c1nnc(C(=O)N2CC[C@H](CO)C2)s1 [Example 221, (S)-7-(5-(5-(3-(hydroxymethyl)pyrrolidine-l-carbonyl)-1,3,4-thiadiazol-2-yl)-4-(isopropylamino)pyridin-2-yl)pyrrolo[1,2-b]pyridazine-3-carbonitrile] | 
